Patent US20100004267A1, “LIQUID PREPARATION” (ASUBIO PHARMA CO., LTD., priority 2006, published 2010)

What was measured:
[1] = Examination on prevention of light decomposition (Test example 5); type: physicochemical
Description: To 800 mL of purified water, 100 g of Captisol (available from CyDex Inc.) serving as a solubilizing agent, 1 g of sodium bisulfite (available from JUNSEI CHEMICAL) serving as an antioxidant, and 5 g of SUN N8075 were sequentially dissolved, and the volume was adjusted to precisely 1,000 mL with purified water, and filtered under reduced pressure. Then each 20 mL of the solution was filled into a colorless ampule (Silicoat ampule, white, 20 mL capacity, available from FUJI GLASS CO., LTD.) and a brown ampule (Silicoat ampule, brown, 20 mL capacity, available from FUJI GLASS CO., LTD.), and then the ampule was sealed. Using autoclave (FLC-M09S30WZ, available from SAKURA SEIKI Co., Ltd.), autoclave sterilization was conducted in a setting condition: 121° C./24 minutes.
A sample of each of these ampules was stored under D65 lamp 2,000 Lux, and irradiated with 40, 80, 120×10^4 Lux, and then SUN N8075 related substances were measured with a HPLC device. The related substances were calculated as a peak ratio of the total related substances, relative to SUN N8075 peak area.
To 150 mL of purified water, a predetermined amount (none, 0.05 g, 0.1 g and 0.2 g) of sodium bisulfite (available from JUNSEI CHEMICAL) serving as an antioxidant, and 1 g of SUN N8075 were sequentially dissolved, and the volume was adjusted to precisely 200 mL with purified water. After filtering under reduced pressure, the solution was bubbled with nitrogen gas for 5 minutes. Then 20 mL of the solution was immediately filled into a brown ampule (Silicoat ampule, brown, 20 mL capacity, available from FUJI GLASS CO., LTD.) having subjected to nitrogen gas replacement, and then the ampule was sealed. Using autoclave (FLC-M09S30WZ, available from SAKURA SEIKI Co., Ltd.), autoclave sterilization was conducted in a setting condition: 121° C./24 minutes.
A sample of each of these ampules was stored under D65 lamp 2,000 Lux, and irradiated with 40×10^4 Lux, and then SUN N8075 related substances were measured with a HPLC device. The related substances were calculated as a peak ratio of the total related substances, relative to SUN N8075 peak area.
As a control sample, 1 g of SUN N8075 was dissolved into 150 mL of purified water, and the volume was adjusted precisely to 200 mL with purified water. Then the solution was filtered under reduced pressure, and bubbled with nitrogen gas for 5 minutes. Then 20 mL of the solution was immediately filled into a brown ampule (Silicoat ampule, brown, 20 mL capacity, available from FUJI GLASS CO., LTD.) replaced with nitrogen gas, and then the ampule was sealed.
This was prepared as a control sample at the start of the test, and SUN N8075 related substances were measured in the similar manner.

aorta of rat = assay: Blood vessel stimulus and precipitation at administration site (Test example 2); type: in vivo
Description: Saline, a solution in saline to which 0.1% of Tween80 was added, and a solution in saline to which 0.5, 1.0, 2.0 or 3.0% of β-cyclodextrin sulfobutyl ether sodium salt dissolving various concentrations described in Table 2 below of SUN N8075 were prepared, and administered to aorta of rat, and precipitation of SUN N8075 and presence of stimulus (blood vessel stimulus) on tissues at the site of administration were evaluated.

[2] = Control: without sodium bisulfite, brown ampule, Start
[3] = N2 gas replacement, sodium bisulfite 0.05%, brown ampule, irradiation 40 ×10^4 LUX
[4] = N2 gas replacement, sodium bisulfite 0.1%, brown ampule, irradiation 40 ×10^4 LUX
[5] = N2 gas replacement, sodium bisulfite […], brown ampule, irradiation 40 ×10^4 LUX
[6] = N2 gas replacement, without sodium bisulfite, brown ampule, irradiation 40 ×10^4 LUX
[7] = without N2 gas replacement, sodium bisulfite 0.1%, Captisol 10%, brown ampule, irradiation 40 ×10^4 LUX
[8] = without N2 gas replacement, sodium bisulfite 0.1%, Captisol 10%, brown ampule, irradiation 80 ×10^4 LUX
[9] = without N2 gas replacement, sodium bisulfite 0.1%, Captisol 10%, brown ampule, irradiation 120 ×10^4 LUX
[10] = without N2 gas replacement, sodium bisulfite 0.1%, Captisol 10%, colorless ampule, irradiation 40 ×10^4 LUX
[11] = without N2 gas replacement, sodium bisulfite 0.1%, Captisol 10%, colorless ampule, irradiation 80 ×10^4 LUX
[12] = without N2 gas replacement, sodium bisulfite 0.1%, Captisol 10%, colorless ampule, irradiation 120 ×10^4 LUX
[13] = 0.1% Tween80 in saline, drug conc. 0.23 mg/mL, 72 hour
[14] = 0.1% Tween80 in saline, drug conc. 0.7 mg/mL, 72 hour
[15] = 0.5% Captisol in saline, drug conc. 0.7 mg/mL, 24 hour
[16] = 1.0% Captisol in saline, drug conc. 0.7 mg/mL, 24 hour
[17] = 2.0% Captisol in saline, drug conc. 0.7 mg/mL, 24 hour
[18] = 3.0% Captisol in saline, drug conc. 0.23 mg/mL, 72 hour
[19] = 3.0% Captisol in saline, drug conc. 0.7 mg/mL, 72 hour
[20] = no solubilizing agent in saline, drug conc. 0.23 mg/mL, 72 hour
[21] = no solubilizing agent in saline, drug conc. 0.7 mg/mL, 72 hour
[22] = no solubilizing agent in saline, drug conc. 2.3 mg/mL, 72 hour

Related Substance Peak ratio [1, 2]: 0.629 | SUN N8075 Peak ratio [1, 2]: 99.37 | Related Substance Peak ratio [1, 3]: 0.608 | SUN N8075 Peak ratio [1, 3]: 99.39 | Related Substance Peak ratio [1, 4]: 0.567 | SUN N8075 Peak ratio [1, 4]: 99.43 | Related Substance Peak ratio [1, 5]: 0.581 | SUN N8075 Peak ratio [1, 5]: 99.42 | Related Substance Peak ratio [1, 6]: 0.967 | SUN N8075 Peak ratio [1, 6]: 99.03 | Related Substance Peak ratio [1, 7]: 1.140 | SUN N8075 Peak ratio [1, 7]: 98.86 | Related Substance Peak ratio [1, 8]: 1.301 | SUN N8075 Peak ratio [1, 8]: 98.70 | Related Substance Peak ratio [1, 9]: 1.750 | SUN N8075 Peak ratio [1, 9]: 98.25 | Related Substance Peak ratio [1, 10]: 4.552 | SUN N8075 Peak ratio [1, 10]: 95.45 | Related Substance Peak ratio [1, 11]: 4.953 | SUN N8075 Peak ratio [1, 11]: 95.05 | Related Substance Peak ratio [1, 12]: 5.987 | SUN N8075 Peak ratio [1, 12]: 94.01 | Blood vessel stimulation (aorta of rat; [13]): Detected | Precipitation at administration site (aorta of rat; [13]): None*^2 | Blood vessel stimulation (aorta of rat; [14]): Detected | Precipitation at administration site (aorta of rat; [14]): None*^2 | Blood vessel stimulation (aorta of rat; [15]): None | Precipitation at administration site (aorta of rat; [15]): None*^2 | Blood vessel stimulation (aorta of rat; [16]): None | Precipitation at administration site (aorta of rat; [16]): None*^2 | Blood vessel stimulation (aorta of rat; [17]): None | Precipitation at administration site (aorta of rat; [17]): None*^2 | Blood vessel stimulation (aorta of rat; [18]): None | Precipitation at administration site (aorta of rat; [18]): None*^2 | Blood vessel stimulation (aorta of rat; [19]): None | Precipitation at administration site (aorta of rat; [19]): None*^2 | Blood vessel stimulation (aorta of rat; [20]): Detected | Precipitation at administration site (aorta of rat; [20]): Detected*^1 | Blood vessel stimulation (aorta of rat; [21]): Detected | Precipitation at administration site (aorta of rat; [21]): Detected*^1 | Blood vessel stimulation (aorta of rat; [22]): Detected | Precipitation at administration site (aorta of rat; [22]): Detected*^1
SMILES: Cc1cc(OC[C@@H](O)CN2CCN(c3ccc(Cc4ccc(F)cc4)cc3)CC2)c(C)c(C)c1N [SUN N8075, (2S)-1-(4-amino-2,3,5-trimethylphenoxy)-3-{4-[4-(4-fluorobenzyl)phenyl]-1-piperazinyl}-2-propanol dimethane sulfonate]
